Experimental data reported in patent publication US20220047527A1, “FOOD-AND-DRINK COMPOSITION CONTAINING ASTAXANTHIN” (AstaReal Co., Ltd., priority 2016, published 2022).
Where two headings read alike, the source gives them in different places.

Tests used:
[1] = test system: human having a sense of fatigue; assay: OSA sleep analysis (OSA sleep inventory MA version); format: in vivo
Description: (§1) A placebo-controlled, randomized, double-blind, parallel-group study was employed for ingestion of the test food, and two groups, namely, the control group (placebo group) with ingestion of a capsule not containing astaxanthin and the astaxanthin group with ingestion of a capsule containing 6 mg of astaxanthin (120 mg of Haematococcus algae extract and 10 mg of tocotrienol mixture derived from palm oil) were compared through a double-blind method. For ingestion of the test food, the subjects were instructed to ingest one capsule twice daily (total 12 mg of astaxanthin (240 mg of Haematococcus algae extract and 20 mg of tocotrienol mixture derived from palm oil) in two capsules per day), one after breakfast (or after the first meal of the day if no breakfast was taken) and the other after dinner, with water or lukewarm water within 30 min of eating. The overall duration for ingestion was 8 weeks (12 weeks only for the OSA sleep analysis). The subjects were also instructed to record their test food ingestion, drinking, and exercise in a diary every day, from the first day to the last day of ingestion.
In accordance with a method reported in Yukari Yamamoto, Hideki Tanaka, Miki Takase, Katuo Yamazaki, Kazuo Azumi, and Shuichiro Shirakawa: “Development and standardization of OSA sleep inventory (MA version) for middle-aged and elderly individuals”, Brain Science and Mental Disorders, vol. 10, p 401-409, 1999, the subjects were instructed to evaluate with respect to items listed in the OSA sleep inventory, and the results were analyzed. The assessment was performed once in the morning of the day of assessment (before load application). The OSA sleep inventory (MA version) consists of 16 items in terms of five factors, namely, First factor: sleepiness on rising, Second factor: initiation and maintenance of sleep, Third factor: frequent dreaming, Fourth factor: refreshing, and Fifth factor: sleep length, and the subjects were instructed to answer each question from four choices, and the results were converted to scores with a conversion table for analysis.

[2] = test system: human having a sense of fatigue; assay: POMS (Profile of Mood States) analysis; format: in vivo
Description: as §1
Using the self-administered POMS 2 in Japanese, adult short version (Kanekoshobo, Tokyo, Japan), the subjects answered 35 questions by rating their “current mood” on a 5-point scale (0=not at all; 1=a little; 2=moderately; 3=quite a bit; 4=extremely). Responses to each question were scored according to the POMS scoring system for the seven scales: anger-hostility, confusion-bewilderment, depression-dejection, fatigue-inertia, tension-anxiety, vigor-activity, and friendliness, and the raw scores were converted into TMD scores with a conversion table. The POMS was administered 3 times in total in one day: in the morning of the day of assessment (before load application), after mental load application (calculation load; Uchida-Kraepelin test), and at the end of the day of assessment (after the rest period). To determine transient changes in fatigue, the load-induced change was calculated by subtracting the pre-load value from the values after mental load application and after a rest period therefor. In addition, to determine the effect of test food ingestion alone, ingestion-induced change was calculated by subtracting the pre-load (pre-ingestion) value at week 0 from the pre-load value after 8-week ingestion.

salivary cortisol = assay: Measurement of salivary cortisol (CLIA); format: in vivo, human; settings: for salivary cortisol concentration: after 8-week ingestion
Source text: Salivary cortisol, which was examined as a biochemical index for a mental load, is used as a stress marker because of simplicity of measurement due to the high correlation with blood cortisol, and known to be increased by an acute mental stress, for example, caused at making a speech in front of others or doing mental calculation or by continuous, high-intensity exercise. Because the salivary cortisol concentration is known to show circadian variation, being high in the morning and then declining as the night approaches, mental load application (calculation load; Uchida-Kraepelin test) was performed in the morning in this study. Salivary secretory immunoglobulin A (sIgA) is an antibody produced by B cells that inhibits the proliferation of pathogens on the mucosa of the oral cavity, airway, intestines, and other organs. It is known that reduction of sIgA in saliva is associated with the development of upper respiratory tract infection and that salivary sIgA concentration decreases under chronic stress and increases in a relaxed state.
Prior to saliva sampling, the subjects were instructed to brush their teeth and place a cotton swab (Salivette) in the mouth for 2 minutes without chewing to thoroughly soak the cotton swab with saliva. Saliva samples were collected twice, in the morning of the day of assessment (before load application) and after mental load application (calculation load; Uchida-Kraepelin test). Salivary cortisol concentration was measured with a competitive chemiluminescent immunoassay (CLIA) kit (Chemilumi ACS-E Cortisol II; Siemens Healthcare Diagnostics Inc.).

[3] = test system: human having a sense of fatigue; assay: Continuous calculation task (Uchida-Kraepelin test), task performance with a mental load; format: in vivo; settings: after 8-week ingestion, vs control group (FIG. 18)
Description: A mental load was applied to each subject by a continuous calculation task with the Uchida-Kraepelin test (Nisseiken Inc., Japan) consisting of two sessions of a 15-min serial addition task (total 30 min), with a 5-min rest period between the first and second sessions. Specifically, the subjects were instructed to sequentially add two adjoining single-digit numbers (combination of 3, 4, 5, 6, 7, 8, and 9), record only the last digit (one's place) of the sum, spend only 1 min on each line, and then quickly move on to the next line of numbers for calculation. This task was continued for 15 min in each session. After the completion of the task, the number of calculations and the number of wrong answers were counted to calculate the percentage of correct answers, and the results for the first session were subtracted from those for the second session to determine change in task performance in the second session, which was used as the task performance with a mental load.

[4] = Adverse events in Study 1; format: in vivo, human
[5] = previously: 12 mg/day of astaxanthin and 40 mg/day of tocotrienol for eight weeks; cited from earlier work
[6] = as high as that of vitamin E; cited from earlier work
[7] = astaxanthin group vs pre-ingestion, no significant difference (FIG. 2)
[8] = throughout the study period, 12 mg/day

For `CC1=C(/C=C/C(C)=C/C=C/C(C)=C/C=C/C=C(C)/C=C/C=C(C)/C=C/C2=C(C)C(=O)C(O)CC2(C)C)C(C)(C)CC(O)C1=O` (stereo not drawn) [astaxanthin, 3,3′-dihydroxy-β,β-carotene-4,4′-dione], the “OSA First factor (sleepiness on rising)” value [1, 7] was “large increase”, the “OSA Fourth factor (refreshing)” value [1, 7] was “large increase” and the “OSA Second factor (initiation and maintenance of sleep)” value [1, 7] was “large increase”. For the same compound, the “OSA Fifth factor (sleep length)” value ([1]; astaxanthin group, 12 mg/day, vs pre-ingestion (FIG. 2)) was “marginally significant increase”, the “degree of improvement in Fifth factor (sleep length) compared with chamomile tea” value ([1]; vs literature: 200 mL chamomile tea 1 hour before bedtime over three days) was “larger” and the “POMS ingestion-induced change, Friendliness (F)” value ([2]; after 8-week ingestion minus pre-ingestion, vs control group (FIG. 6)) was “significant high value”. The “POMS load-induced change, Vigor-activity (VA)” value ([2]; after the rest period, after 8-week ingestion, vs control group (FIG. 6)) was “marginally significant high value”, the “POMS improvement in Vigor-activity (VA) compared with quercetin/isoquercetin” value ([2]; vs literature: 250 mg quercetin and 100 mg isoquercetin for 42 to 54 days) was “larger” and the “POMS improvement in Vigor-activity (VA), AH, FI and CB compared with bonito stock” value ([2]; vs literature: bonito stock morning and evening over two weeks) was “larger”. The “salivary cortisol concentration after vs before mental load application” value (salivary cortisol; after 4-week ingestion (FIG. 7)) was “significantly lower”, the salivary cortisol concentration (salivary cortisol; after mental load application) was 0.38 ± 0.03 µg/dL and the salivary cortisol concentration (salivary cortisol; before mental load application) was 0.44 ± 0.03 µg/dL. For the same compound, the “change in the number of wrong answers in the second session, continuous calculation task” value [3] was “significant improvement”, the “percentage of correct answers in the second session, continuous calculation task” value [3] was “significant improvement” and the adverse event ([4]; this study) was “no adverse event was found”. For the same compound, the adverse subjective symptoms [4, 8] was “none of the subjects complained”, the “medical examination by a physician” value [4, 8] was “no remarkable abnormalities” and the adverse event [5] was “No adverse event”. The “antioxidative effect relative to vitamin E” value [6] was 1000 times.
